The source made the active and inactive calls. The rule behind the calls is not given here.
Assays:
[1] = target: T1, 5-hydroxytryptamine receptor 2C (Homo sapiens) (UniProt P28335); assay: Agonist activity at human 5HT2C receptor expressed in CHO-K1 cells assessed as increase of fluorescence based calcium mobilization at 10 uM by FLIPR assay relative to control; type: functional, cell-based
T1 sequence (whole entry): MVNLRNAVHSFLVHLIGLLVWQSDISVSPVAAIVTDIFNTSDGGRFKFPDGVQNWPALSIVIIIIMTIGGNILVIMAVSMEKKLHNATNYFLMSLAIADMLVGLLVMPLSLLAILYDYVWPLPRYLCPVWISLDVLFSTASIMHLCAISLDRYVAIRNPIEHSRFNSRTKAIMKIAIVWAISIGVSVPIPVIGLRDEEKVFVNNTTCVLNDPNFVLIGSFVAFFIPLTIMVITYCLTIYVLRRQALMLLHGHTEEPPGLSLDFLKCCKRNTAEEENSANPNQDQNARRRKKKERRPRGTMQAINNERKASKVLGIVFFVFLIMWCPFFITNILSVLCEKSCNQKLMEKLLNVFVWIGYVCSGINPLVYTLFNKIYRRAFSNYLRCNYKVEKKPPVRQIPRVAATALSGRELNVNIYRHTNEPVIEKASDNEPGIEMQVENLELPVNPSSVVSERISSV

[2] = target: T2, 5-hydroxytryptamine receptor 2B (Homo sapiens, UniProt P41595); assay: Agonist activity at human 5HT2B receptor expressed in CHO-K1 cells assessed as increase of fluorescence based calcium mobilization at 10 uM by FLIPR assay relative to control; type: functional, cell-based
[3] = target: T1, 5-hydroxytryptamine receptor 2C (Homo sapiens); assay: Agonist activity at human 5HT2C receptor expressed in CHO-K1 cells assessed as increase of fluorescence based calcium mobilization by FLIPR assay relative to control; type: functional, cell-based
[4] = Cmax in CD rat at 2 mg/kg, po administered as single dose; type: ADME, organism-based; set-up: dose 2 mg/kg, route oral; details: in vivo
[5] = Intrinsic clearance in human liver microsomes; type: ADME, Microsome
[6] = Volume of distribution in Beagle dog at 0.030 mg/kg, iv administered as infusion over 1 hr; type: ADME, organism-based, Canis lupus familiaris; set-up: dose 0.03 mg/kg, route intravenous; details: in vivo, 0.03 mg/kg
[7] = Intrinsic clearance in dog liver microsomes; type: ADME, Canis lupus familiaris, Microsome
[8] = Tmax in CD rat at 2 mg/kg, po administered as single dose; type: ADME, organism-based; set-up: dose 2 mg/kg, route oral; details: in vivo
[9] = Dissociation constant, pKa of the compound; type: physicochemical
[10] = Intrinsic clearance in rat liver microsomes; type: ADME, Microsome
[11] = Elimination half life in Beagle dog at 0.030 mg/kg, iv administered as single infusion over 1 hr; type: ADME, organism-based, Canis lupus familiaris; set-up: dose 0.03 mg/kg, route intravenous; details: in vivo, 0.03 mg/kg, read-out: beta t1/2 (converted)
[12] = Plasma clearance in CD rat at 1 mg/kg, iv administered as single bolus dose; type: ADME, organism-based; set-up: dose 1 mg/kg, route intravenous
[13] = Intrinsic clearance in dog hepatocytes assessed per 10^6 cells; type: ADME, cell-based, Canis lupus familiaris, Liver, Hepatocyte
Canis familiaris = assay: Increase of peak urethral pressure in iv dosed anesthetized dog stress urinary incontinence model at 20 to 45 nM of free plasma concentration relative to control; type: functional, Canis lupus familiaris, Urethra
[14] = Plasma clearance in Beagle dog at 0.030 mg/kg, iv administered as infusion over 1 hr; type: ADME, organism-based, Canis lupus familiaris; set-up: dose 0.03 mg/kg, route intravenous; details: 0.03 mg/kg
[15] = Elimination half life in CD rat at 1 mg/kg, iv administered as single bolus dose; type: ADME, organism-based; set-up: dose 1 mg/kg, route intravenous; details: in vivo, read-out: beta t1/2 (converted)
[16] = Oral bioavailability in CD rat at 2 mg/kg administered as single dose; type: ADME, organism-based; details: in vivo
[17] = Intrinsic clearance in human hepatocytes assessed per 10^6 cells; type: ADME, cell-based, Liver, Hepatocyte
[18] = Drug excretion in CD rat urine at 1 mg/kg, iv administered as single bolus dose; type: ADME, organism-based; set-up: dose 1 mg/kg, route intravenous
[19] = Intrinsic clearance in rat hepatocytes assessed per 10^6 cells; type: ADME, cell-based, Liver, Hepatocyte
[20] = Volume of distribution in CD rat at 1 mg/kg, iv administered as single bolus dose; type: ADME, organism-based; set-up: dose 1 mg/kg, route intravenous; details: in vivo
Rattus norvegicus = assay: AUC (0 to infinity) in CD rat at 2 mg/kg, po administered as single dose; type: ADME, organism-based, Plasma; set-up: time infinity, dose 2 mg/kg, route oral; details: in vivo
[21] = target: T3, 5-hydroxytryptamine receptor 2C (Homo sapiens, UniProt P28335); assay: Agonist activity at human 5HT2C receptor expressed in Swiss mouse 3T3 cells with low expression increase of fluorescence based calcium mobilization by FLIPR assay; type: functional, cell-based
T3 sequence (P28335 whole entry): T1 sequence (whole entry)

[22] = target: T1, 5-hydroxytryptamine receptor 2C (Homo sapiens); assay: Agonist activity at human recombinant 5HT2C receptor expressed in Swiss mouse 3T3 cells with low expression increase of fluorescence based calcium mobilization by FLIPR assay relative to control; type: functional, cell-based; details: NIH3T3
[23] = target: T3, 5-hydroxytryptamine receptor 2C; assay: Agonist activity at human 5HT2C receptor expressed in CHO-K1 cells assessed as increase of fluorescence based calcium mobilization by FLIPR assay; type: functional, cell-based
[24] = target: T2, 5-hydroxytryptamine receptor 2B; assay: Agonist activity at human 5HT2B receptor expressed in CHO-K1 cells assessed as increase of fluorescence based calcium mobilization by FLIPR assay; type: functional, cell-based
[25] = target: T2, 5-hydroxytryptamine receptor 2B; assay: Agonist activity at human 5HT2B receptor expressed in CHO-K1 cells assessed as increase of fluorescence based calcium mobilization by FLIPR assay relative to control; type: functional, cell-based
[26] = target: T1, 5-hydroxytryptamine receptor 2C (Homo sapiens); assay: Agonist activity at human 5HT2C receptor expressed in HEK293 cells assessed as 5-HT-induced maximum response by inositol phosphate accumulation assay; type: functional, cell-based
[27] = target: T4, 5-hydroxytryptamine receptor 2C (Canis lupus familiaris) (UniProt Q60F97); assay: Agonist activity at dog 5HT2C receptor ralative to control; type: functional
T4 sequence (whole entry): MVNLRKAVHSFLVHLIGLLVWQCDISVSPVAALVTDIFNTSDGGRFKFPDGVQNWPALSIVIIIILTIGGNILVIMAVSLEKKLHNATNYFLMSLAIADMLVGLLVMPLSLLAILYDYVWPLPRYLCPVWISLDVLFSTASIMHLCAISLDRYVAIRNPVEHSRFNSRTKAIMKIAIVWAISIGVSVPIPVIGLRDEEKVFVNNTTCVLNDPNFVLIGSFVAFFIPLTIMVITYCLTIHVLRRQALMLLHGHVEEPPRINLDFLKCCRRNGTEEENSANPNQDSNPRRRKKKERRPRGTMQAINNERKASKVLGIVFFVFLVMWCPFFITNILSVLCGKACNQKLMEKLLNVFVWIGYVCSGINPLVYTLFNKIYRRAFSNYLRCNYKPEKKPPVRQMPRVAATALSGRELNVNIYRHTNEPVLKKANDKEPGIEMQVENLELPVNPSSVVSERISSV

T2 sequence (P41595 whole entry): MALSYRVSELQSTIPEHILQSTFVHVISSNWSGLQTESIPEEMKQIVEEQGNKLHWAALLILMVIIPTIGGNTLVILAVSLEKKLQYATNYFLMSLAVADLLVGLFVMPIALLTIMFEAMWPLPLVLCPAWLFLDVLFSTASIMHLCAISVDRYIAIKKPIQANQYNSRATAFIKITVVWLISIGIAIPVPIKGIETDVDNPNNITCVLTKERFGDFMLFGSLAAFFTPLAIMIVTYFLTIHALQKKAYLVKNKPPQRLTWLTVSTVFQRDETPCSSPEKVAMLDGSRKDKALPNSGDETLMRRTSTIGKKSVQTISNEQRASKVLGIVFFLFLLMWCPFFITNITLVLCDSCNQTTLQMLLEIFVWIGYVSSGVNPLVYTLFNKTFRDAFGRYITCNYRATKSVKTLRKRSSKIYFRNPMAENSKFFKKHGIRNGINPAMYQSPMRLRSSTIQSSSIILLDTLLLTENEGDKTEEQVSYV

FC(F)(F)c1ccccc1Cc1ncc2c(n1)CCNCC2
Emax [1]: 15% | Emax [2]: 15%

c1ccc(-c2ncc3c(n2)CCNC3)cc1
Activity [3]: inactive

c1ccc(Cc2ncc3c(n2)CCNCC3)cc1
Cmax [4]: 49 ng/mL | microsomal CLint [5]: < 7 µL/min/mg | Vd [6]: 3.5 L/kg | microsomal CLint [7]: < 7 µL/min/mg | Tmax [8]: 0.25 h | pKa [9]: 8.5 | microsomal CLint [10]: 28 µL/min/mg | half-life [11]: 3.4 h | clearance [12]: 51 mL/min/kg | hepatocyte CLint [13]: < 5 µL/min/1e6 cells | Activity (Canis familiaris): 20% | clearance [14]: 11.6 mL/min/kg | half-life [15]: 2.8 h | bioavailability [16]: 44% | hepatocyte CLint [17]: < 5 µL/min/1e6 cells | dose excreted [18]: 10% | hepatocyte CLint [19]: 15 µL/min/1e6 cells | Vd [20]: 8.9 L/kg | AUC (Rattus norvegicus): 290 ng·h/mL

c1ccc(CCc2ncc3c(n2)CCNCC3)cc1
EC50 [21]: 4800 nM | Emax [22]: 40% | EC50 [23]: 110 nM | Emax [3]: 99%

FC(F)(F)c1cccc(Cc2ncc3c(n2)CCNCC3)c1
EC50 [24]: 160 nM | Emax [25]: 63% | Emax [3]: 44%

Fc1ccccc1Cc1ncc2c(n1)CCNCC2
EC50 [24]: 220 nM | Emax [25]: 43% | Emax [3]: 65%

c1ccc(CCc2ncc3c(n2)CCNC3)cc1
Emax [1]: 50%

Cc1cccc(Cc2ncc3c(n2)CCNCC3)c1
EC50 [24]: 410 nM | Emax [25]: 62% | Emax [3]: 84%

C[C@H]1CNCCc2ccc(Cl)cc21
Emax [26]: 100% | Activity [27]: 82% | Emax [3]: 84%

c1ccc(CCCc2ncc3c(n2)CCNC3)cc1
EC50 [23]: 1900 nM | Emax [3]: 100%

Cc1ccccc1Cc1ncc2c(n1)CCNCC2
EC50 [24]: 1200 nM | Emax [25]: 56% | Emax [3]: 70%

Clc1cccc(Cc2ncc3c(n2)CCNCC3)c1
EC50 [24]: 30 nM | Emax [25]: 50% | Emax [3]: 56%

Reference: ChEMBL document CHEMBL1770110, “Pyrimido[4,5-d]azepines as potent and selective 5-HT2C receptor agonists: design, synthesis, and evaluation of PF-3246799 as a treatment for urinary incontinence” (Bioorg Med Chem Lett, 2011)
